The values below come from patent publication US20090041687A1 (priority 2005, published 2009).

Structures can show the parent of a compound that is named as a salt.

T1 sequence (P35372 whole entry): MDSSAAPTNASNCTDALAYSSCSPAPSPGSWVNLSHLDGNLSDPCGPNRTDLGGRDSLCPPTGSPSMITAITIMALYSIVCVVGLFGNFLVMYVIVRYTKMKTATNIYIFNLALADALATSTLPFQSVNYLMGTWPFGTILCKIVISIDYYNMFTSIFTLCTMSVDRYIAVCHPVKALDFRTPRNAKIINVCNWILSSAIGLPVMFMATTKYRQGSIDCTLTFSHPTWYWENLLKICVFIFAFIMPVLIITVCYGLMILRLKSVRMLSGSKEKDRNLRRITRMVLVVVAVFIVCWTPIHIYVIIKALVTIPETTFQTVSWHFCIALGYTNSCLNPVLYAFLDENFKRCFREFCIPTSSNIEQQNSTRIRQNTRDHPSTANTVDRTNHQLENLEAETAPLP

One assay has as its target T1, μ-opioid receptor (Homo sapiens, UniProt P35372).
T1 construct: purchased Perkin Elmer; host or cells: CHO cells (recombinant overexpression; membrane preparation)
Briefly: μ-opioid receptor binding assay and GTP-recruitment assay (screening for antagonists). In kind it is biochemical. As to conditions: [3H] DAMGO binding and DAMGO/GTP-Eu recruitment, membranes from CHO cells overexpressing the receptor; result in words. The procedure: […] DAMGO (Amersham) in 50 mM Tris HCl pH 7.4 (Sigma), 10 mM MgCl2 (Sigma) and 0.2% BSA (Sigma) in the presence of the negative control DMSO (Fluka) or the test compounds. The incubation mixture was transferred to filter plates (Perkin Elmer), the liquid aspirated through the application of a vacuum from the bottom and the plate washed twice with PBS (Invitrogen). The plate was allowed to dry, 35 μl of scintillation cocktail (Ultima Gold, Perkin Elmer) added, sealed and placed on a TopCount (Packard) for scintillation counting.
[…] The incubation mixture was transferred to filter plates (Perkin Elmer), the liquid aspirated through the application of a vacuum from the bottom and the plate washed twice with PBS (Invitrogen) and allowed to dry. Plates were read in an Analyst reader (LJL Biosystems).
Consider `COC1=C(OC)C(=O)C=CC1=O` [2,3-Dimethoxy-1,4-benzoquinone], for which the “identified as opioid receptor antagonist in the screening” value (from here on “identified”) was “opioid receptor antagonists”.

In the case of `COC1=C(OC)C(=O)C(C)=CC1=O` [2,3-Dimethoxy-5-methyl-1,4-benzoquinone], the “identified” value was “opioid receptor antagonists”.

Regarding `COc1c(O)cc(C)c(O)c1OC` [2,3-Dimethoxy-5-methylhydroquinone], the “identified” value is listed as “opioid receptor antagonists”.

`COc1c(O)ccc(O)c1OC` [2,3-Dimethoxyhydroquinone]: the “identified” value was “opioid receptor antagonists”.

With `O=C(/C=C/c1ccc(O)c(O)c1)c1ccc(O)c(O)c1O` [2′,3′,4′,3,4-Pentahydroxychalcone], the “identified” value is “opioid receptor antagonists”.

Consider `O=C1/C(=C/c2ccc(O)c(O)c2)Oc2cc(O)cc(O)c21` [Aureusidin], for which the “identified” value is given as “opioid receptor antagonists”.

Consider `Oc1cc(O)c2cc(O)c(-c3cc(O)c(O)c(O)c3)[o+]c2c1` [Delphinidin chloride], for which the “identified” value is “opioid receptor antagonists”.

`O=C(Oc1cc(O)cc2c1C[C@@H](OC(=O)c1cc(O)c(O)c(O)c1)[C@@H](c1cc(O)c(O)c(O)c1)O2)c1cc(O)c(O)c(O)c1` [Epigallocatechin 3,5-Digallate]: the “identified” value was “opioid receptor antagonists”.

As for `CC(=O)Oc1cc(-c2coc3cc(OC(C)=O)c(OC(C)=O)c(OC(C)=O)c3c2=O)cc(OC(C)=O)c1OC(C)=O` [Irigenol Hexaacetate], the “identified” value is given as “opioid receptor antagonists”.

For the compound `O=c1c(-c2cc(O)c(O)c(O)c2)coc2cc(O)c(O)c(O)c12` [Irigenol ex Iris spp], the “identified” value is given as “opioid receptor antagonists”.

Turning to `C/C1=C\CCC(C)(O)/C=C/C(C(C)C)CC/C(C)=C/CC1` (stereo not shown) [Isocembrol], the “identified” value is on record as “opioid receptor antagonists”.

In the case of `O=c1c(O)c(-c2ccc(O)c(O)c2)oc2cc(O)c(O)c(O)c12` [Quercetagetin], the “identified” value is on record as “opioid receptor antagonists”.

For the compound `O=c1c(O)c(-c2cc(O)c(O)c(O)c2)oc2cc(O)ccc12` [Robinetin], the “identified” value is “opioid receptor antagonists”.

As for `CC(C)=CCC(OC(=O)C=C(C)C)C1=CC(=O)c2c(O)ccc(O)c2C1=O` (stereo not drawn) [beta,beta-Dimethylacryl shikonin], the “identified” value was “opioid receptor antagonists”.

The same assay, now with this note: [3H] DAMGO binding and DAMGO/GTP-Eu recruitment, membranes from CHO cells overexpressing the receptor; result in words; Hydrochloride.
For the compound `COc1cc2c3cc1Oc1c(OC)c(OC)cc4c1[C@@H](Cc1cccc(c1)Oc1ccc(c(O)c1)C[C@@H]3N(C)CC2)N(C)CC4` [Berbamine Hydrochloride], the “identified” value is given as “opioid receptor antagonists”.

The subject of the next assay is human primary melanocytes from skin type IV. The assay can be described thus: total intracellular melanin production in human primary melanocytes (depigmentation). Type of assay: cell-based. As to conditions: Naloxone 1 × 10^−4 M, 4 days, absorption of cell lysates at 475 nm, duplicate. The procedure: Normal human melanocytes were cultured from freshly excised foreskin of skin type IV and treated with Dispase (ready-to-use, Roche) overnight at 4° C. Melanocytes dissociated from the epidermis were plated in culture flasks at high density using Melanocyte Growth Medium M2 (Promocell) supplemented with the corresponding growth factors (Promocell). These primary cells were cultivated under 100% humidity and 5% CO2 at 37° C. At the second passage, melanocytes were transferred to 6 well plates and allowed to reach 80% surface confluence.
Medium was renewed on day two of the experiment. Cells were harvested, counted and lysed in 1N NaOH using vigorous vortexing and a 30 minute incubation in an ultrasound bath. Melanin content was determined by measuring the absorption of cell lysates at 475 nm. Values were calibrated against a standard curve based on synthetic melanin (Sigma). The amount of melanin per 1 million cells is reported. Each treatment was run in duplicate.
In the case of `C=CCN1CC[C@]23c4c5ccc(O)c4O[C@H]2C(=O)CC[C@@]3(O)[C@H]1C5` [Naloxone], the “Melanin (μg/10^6 cells)” value is recorded as 1.05 μg/10^6 cells.

The assay is the same for the next values; noted with them: Naloxone 1 × 10^−4 M, 4 days, versus control.
For the compound `C=CCN1CC[C@]23c4c5ccc(O)c4O[C@H]2C(=O)CC[C@@]3(O)[C@H]1C5` [Naloxone], the “Reduction of mean melanin content” value is 86%.

Still in this assay, the particulars now being: Naloxone 5 × 10^−6 M, 4 days, versus control.
For the compound `C=CCN1CC[C@]23c4c5ccc(O)c4O[C@H]2C(=O)CC[C@@]3(O)[C@H]1C5` [Naloxone], the “Reduction of mean melanin content” value is 78%.

The assay is the same for the next values; noted with them: result in words.
Take `C=CCN1CC[C@]23c4c5ccc(O)c4O[C@H]2C(=O)CC[C@@]3(O)[C@H]1C5` [Naloxone]: the “intracellular melanin content compared to the control” value is recorded as “dramatically reduces intracellular melanin content”.
